According to ChEMBL document CHEMBL4130508, “Structural Sequencing of Oligopeptides Aided by 1H Iterative Full-Spin Analysis” (2017):
Converted amounts (≈) assume the structure as drawn. Numbered stars: 1 amine (or outer) side, 2 acyl side, 3 side chain; on linkers, the order of the positions; unused ones are H or OH. Bridge positions count the residues as written; N and C are the ends. Square brackets hold non-standard residues; d marks the D form. Peptide text beside a SMILES is read from it. * marks the point of attachment. Phe(3R-OH) = O=C([C@@H](N[*:1])[C@H](O[*:3])c1ccccc1)[*:2]; NMeTrp(4-OMe) = CN[C@@H](Cc1c[nH]c2cccc(OC)c12)C(=O)O; NMeaIle = CC[C@@H](C)[C@H](NC)C(=O)O; NMe2Val = CC(C)[C@@H](C(=O)*)N(C)C; NMeT = CN[C@H](C(=O)O)[C@@H](C)O; NMeL = CN[C@@H](CC(C)C)C(=O)O; NMeV = CN[C@H](C(=O)O)C(C)C

tested on: Mycobacterium tuberculosis; experiment: Antimycobacterial activity against Mycobacterium tuberculosis H37Rv ATCC 27294 by Alamar blue assay; format: functional

Structure (SMILES)	MIC [µg/mL]
CC[C@@H](C)[C@@H](C(=O)N[C@@H]1C(=O)N(C)[C@@H]([C@@H](C)O)C(=O)N[C@@H](C(C)C)C(=O)N(C)[C@@H](CC(C)C)C(=O)N[C@@H](C(C)C)C(=O)N(C)[C@@H](C(C)C)C(=O)N(C)[C@@H](Cc2c[nH]c3cccc(OC)c23)C(=O)N[C@@H](C(C)C)C(=O)N[C@@H]([C@H](O)c2ccccc2)C(=O)N[C@@H](C(C)C)C(=O)O[C@@H]1C)N(C)C(=O)[C@@H](NC(=O)[C@H](C(C)C)N(C)C)C(C)C (NMe2Val-V[NMeaIle]T[NMeT]V[NMeL]V[NMeV][NMeTrp(4-OMe)]V[Phe(3R-OH)]V; ester 3-C)	0.26 (≈ 0.162 µM)
CC[C@@H](C)[C@@H](C(=O)N[C@@H]1C(=O)N(C)[C@@H]([C@@H](C)O)C(=O)N[C@@H]([C@@H](C)CC)C(=O)N(C)[C@@H](CC(C)C)C(=O)N[C@@H](C(C)C)C(=O)N(C)[C@@H](C(C)C)C(=O)N(C)[C@@H](Cc2c[nH]c3cccc(OC)c23)C(=O)N[C@@H](C(C)C)C(=O)N[C@@H]([C@H](O)c2ccccc2)C(=O)N[C@@H](C(C)C)C(=O)O[C@@H]1C)N(C)C(=O)[C@@H](NC(=O)[C@H](C(C)C)N(C)C)C(C)C	0.26 (≈ 0.161 µM)
COc1cccc2[nH]cc(C[C@H]3C(=O)N[C@@H](C(C)C)C(=O)N[C@@H]([C@H](O)c4ccccc4)C(=O)N[C@@H](C(C)C)C(=O)O[C@H](C)[C@H](NC(=O)[C@H](C(C)C)N(C)C(=O)[C@@H](NC(=O)[C@H](C(C)C)N(C)C)C(C)C)C(=O)N(C)[C@@H]([C@@H](C)O)C(=O)N[C@@H](C(C)C)C(=O)N(C)[C@@H](CC(C)C)C(=O)N[C@@H](C(C)C)C(=O)N(C)[C@@H](C(C)C)C(=O)N3C)c12 (NMe2Val-V[NMeV]T[NMeT]V[NMeL]V[NMeV][NMeTrp(4-OMe)]V[Phe(3R-OH)]V; ester 3-C)	0.15 (≈ 0.0946 µM)
COc1cccc2[nH]cc(C[C@H]3C(=O)N[C@@H](C(C)C)C(=O)N[C@@H](Cc4ccccc4)C(=O)N[C@@H](C(C)C)C(=O)O[C@H](C)[C@H](NC(=O)[C@H](C(C)C)N(C)C(=O)[C@@H](NC(=O)[C@H](C(C)C)N(C)C)C(C)C)C(=O)N(C)[C@@H]([C@@H](C)O)C(=O)N[C@@H](C(C)C)C(=O)N(C)[C@@H](CC(C)C)C(=O)N[C@@H](C(C)C)C(=O)N(C)[C@@H](C(C)C)C(=O)N3C)c12 (NMe2Val-V[NMeV]T[NMeT]V[NMeL]V[NMeV][NMeTrp(4-OMe)]VFV; ester 3-C)	0.13 (≈ 0.0828 µM)
CC[C@@H](C)[C@@H](C(=O)N[C@@H]1C(=O)N(C)[C@@H]([C@@H](C)O)C(=O)N[C@@H](C(C)C)C(=O)N(C)[C@@H](CC(C)C)C(=O)N[C@@H](C(C)C)C(=O)N(C)[C@@H](C(C)C)C(=O)N(C)[C@@H](Cc2c[nH]c3cccc(OC)c23)C(=O)N[C@@H]([C@@H](C)CC)C(=O)N[C@@H]([C@H](O)c2ccccc2)C(=O)N[C@@H](C(C)C)C(=O)O[C@@H]1C)N(C)C(=O)[C@@H](NC(=O)[C@H](C(C)C)N(C)C)C(C)C	0.26 (≈ 0.161 µM)
CC[C@@H](C)[C@@H](C(=O)N[C@@H]1C(=O)N(C)[C@@H]([C@@H](C)O)C(=O)N[C@@H](C(C)C)C(=O)N(C)[C@@H](CC(C)C)C(=O)N[C@@H](C(C)C)C(=O)N(C)[C@@H](C(C)C)C(=O)N(C)[C@@H](Cc2c[nH]c3cccc(OC)c23)C(=O)N[C@@H](C(C)C)C(=O)N[C@@H]([C@H](O)c2ccccc2)C(=O)N[C@@H]([C@@H](C)CC)C(=O)O[C@@H]1C)N(C)C(=O)[C@@H](NC(=O)[C@H](C(C)C)N(C)C)C(C)C	0.26 (≈ 0.161 µM)
CC[C@@H](C)[C@@H](C(=O)N[C@@H]1C(=O)N(C)[C@@H]([C@@H](C)O)C(=O)N[C@@H](C(C)C)C(=O)N(C)[C@@H](CC(C)C)C(=O)N[C@@H](C(C)C)C(=O)N(C)[C@@H](C(C)C)C(=O)N(C)[C@@H](Cc2c[nH]c3cccc(OC)c23)C(=O)N[C@@H](C(C)C)C(=O)N[C@@H](Cc2ccccc2)C(=O)N[C@@H](C(C)C)C(=O)O[C@@H]1C)N(C)C(=O)[C@@H](NC(=O)[C@H](C(C)C)N(C)C)C(C)C	0.55 (≈ 0.347 µM)
